Columns and labels:
IgE = experiment: ELISA analysis of serum IgE in atopic dermatitis animal model; settings: day of autopsy (Day 14)
HeLa cells = experiment: ACP-tetrapeptide cell membrane permeation experiment; format: cell-based; settings: 3, 15 and 30 μM ACP-tetrapeptide-FITC for 3 hours, fluorescence microscopy, FIG. 14
Method: HeLa cells were inoculated in a 12-well plate containing glass at a density of 1×10^5 cells/well and cultured for 24 hours to attach the cells to the glass. Then, HeLa cells were treated with 3 μM ACP-FITC peptide and 3, 15, and 30 μM ACP-tetrapeptide-FITC peptide for 3 hours. After 3 hours, the cells were washed three times with PBS. Then, the cells were fixed with 3.7% formaldehyde for 20 minutes and treated with PBS containing 0.2% Triton X-100 to increase cell permeability. Then, the cells were blocked with 3% BSA for 1 hour, reacted with a tubulin antibody (Santa Cruz Biotechnology, U.S.A.) at room temperature for 2 hours, and washed three times with PBS. Next, the cells were treated with a Cy3-conjugated secondary antibody (Jackson ImmunoResearch, USA) at room temperature for 1 hour, washed twice with PBS, and then stained with 4′,6-diamidino-2-phenylindole (DAPI) for 10 minutes. Finally, the HeLa cell-attached glass was removed and mounted on a sliding glass. The cells were observed under a fluorescence microscope (DMil, Leica, Germany).

[1] = tested on: atopic mouse skin tissues; experiment: Immunohistochemical staining of atopic mouse skin tissue (angiogenic marker, inflammatory cells, keratin); format: in vivo, NC/Nga mouse; settings: atopic mouse skin tissue, also similar to prednisolone treated group
Method: (§1) After the ear auricle of the NC/Nga mouse was shaved with a razor, the epilating agent was applied in an appropriate amount for the complete depilation. After the epilating agent was wiped off, Then, 100 mg of the AD-inducing reagent shown in Table 2 as below was uniformly applied to the ear auricle using a micropipette tip, thereby inducing atopic dermatitis for the first time.
(§2) After shaving with a razor for necessary, 150 μL of a 4% SDS aqueous solution was uniformly applied to the ear auricle using a micropipette, dried with a cold air using a dryer, and air-dried for about 2 to 3 hours. Then, 100 mg of the same AD-inducing reagent was uniformly applied to the ear auricle using a micropipette tip, thereby inducing atopic dermatitis after 2 times. All treatments were carried out twice a week to be 6 times for a total of 3 weeks, thereby producing atopic dermatitis animal model.
(§3) The mice of groups 2 to 5 were obtained by the atopic dermatitis animal model prepared in Experimental Method 3 as described above.
(§4) The experimental substance and the control substance were uniformly applied to the ear auricle using a micropipette tip. From the day of the experimental substance administration (Day 0) to the day of the autopsy (Day 14), they were administered once a day for 2 weeks.
Atopy mouse skin tissues were immersed in Xylene three times for 5 minutes, 100% ethanol for 2 minutes, 95% ethanol for 2 minutes, 90% ethanol for 2 minutes, 70% ethanol for 2 minutes and D.W. for 2 minutes to remove paraffin and to perform hydration. After washing with PBS, they were treated with 0.2% Triton X-100 to increase cell permeability. After re-washing with PBS, they were reacted with blocking solution, 3% bovine serum albumin, for 1 hour. For inflammatory cells and keratin staining, they were reacted with F4/80 (sc-377009, Santa Cruz) and cytokeratin (NB600-579, NOVUSBIO) antibodies, respectively, at room temperature for 2 hours. After washing with PBS, they were treated with Texas Red (ab6787, Abcam) secondary antibody and reacted at room temperature for 60 minutes. The mounting solution was dropped on the tissue of the slide. Then, the tissue was covered with a cover slide, and the sample was observed under a fluorescence microscope. For analysis of the degree of angiogenesis, the atopic skin tissue was reacted with FITC-conjugated isolectin B4 (L2895, Sigma), a blood vessel marker at room temperature for 2 hours. The mounting solution was dropped on the tissue of the slide. Then, the tissue was covered with a cover slide, and the sample was observed under a fluorescence microscope
The mouse skin tissues stained with the respective markers were photographed using a fluorescence microscope (DMil, Leica, Germany), and fluorescence intensities were quantitatively analyzed using an ImageJ program (NIH, Bethesda, Md., USA).

[2] = tested on: atopic dermatitis animal model; experiment: Ear thickness measurement in atopic dermatitis animal model; format: in vivo, NC/Nga mouse; settings: FIG. 2
Method: After the ear auricle of the NC/Nga mouse was shaved with a razor, the epilating agent was applied in an appropriate amount for the complete depilation. After the epilating agent was wiped off, Then, 100 mg of the AD-inducing reagent shown in Table 2 as below was uniformly applied to the ear auricle using a micropipette tip, thereby inducing atopic dermatitis for the first time. After shaving with a razor for necessary, 150 μL of a 4% SDS aqueous solution was uniformly applied to the ear auricle using a micropipette, dried with a cold air using a dryer, and air-dried for about 2 to 3 hours. Then, 100 mg of the same AD-inducing reagent was uniformly applied to the ear auricle using a micropipette tip, thereby inducing atopic dermatitis after 2 times. All treatments were carried out twice a week to be 6 times for a total of 3 weeks, thereby producing atopic dermatitis animal model. The mice of groups 2 to 5 were obtained by the atopic dermatitis animal model prepared in Experimental Method 3 as described above. The experimental substance and the control substance were uniformly applied to the ear auricle using a micropipette tip. From the day of the experimental substance administration (Day 0) to the day of the autopsy (Day 14), they were administered once a day for 2 weeks. Ear thickness was measured for each individual by calipers, and the ear area was photographed. Ear thickness measurement and photographing were performed once a week on the day of starting the experimental substance administration and thereafter.

[3] = tested on: atopic dermatitis animal model; experiment: Histopathological examination of ear epidermis and dermis (H&E scoring); format: in vivo, NC/Nga mouse; settings: infiltration by inflammatory cells, p<0.05, FIGS. 8 and 9
Method: After the ear auricle of the NC/Nga mouse was shaved with a razor, the epilating agent was applied in an appropriate amount for the complete depilation. After the epilating agent was wiped off, Then, 100 mg of the AD-inducing reagent shown in Table 2 as below was uniformly applied to the ear auricle using a micropipette tip, thereby inducing atopic dermatitis for the first time. After shaving with a razor for necessary, 150 μL of a 4% SDS aqueous solution was uniformly applied to the ear auricle using a micropipette, dried with a cold air using a dryer, and air-dried for about 2 to 3 hours. Then, 100 mg of the same AD-inducing reagent was uniformly applied to the ear auricle using a micropipette tip, thereby inducing atopic dermatitis after 2 times. All treatments were carried out twice a week to be 6 times for a total of 3 weeks, thereby producing atopic dermatitis animal model. The mice of groups 2 to 5 were obtained by the atopic dermatitis animal model prepared in Experimental Method 3 as described above. The experimental substance and the control substance were uniformly applied to the ear auricle using a micropipette tip. From the day of the experimental substance administration (Day 0) to the day of the autopsy (Day 14), they were administered once a day for 2 weeks. On the day of the autopsy, ears were removed for the histopathological examination and fixed in 10% neutral buffered formalin solution. The fixed tissues were subject to the general tissue treatment such as reprofiling, dehydration, paraffin embedding, and dissection, thereby preparing specimens for histopathological examination. Then, hematoxylin and eosin (H & E) and TUNEL assays were performed on histopathologic specimens, and the light microscopy (Olympus BX53, Japan) was used to observe histopathologic changes. In the histopathologic evaluation using hematoxylin and eosin staining slides, in order to compare the degree of the lesion with the induced control group, the most severe lesion was selected, and then the hypertrophy, hyperkeratosis and infiltration by inflammatory cells were evaluated in the epidermis. In the dermis, the infiltration by inflammatory cells was evaluated. Scoring criteria are the same as 0 (no symptoms), 1 (mild), 2 (moderate), and 3 (severe) (Taniguchi Y et al 2003).

histamine = experiment: ELISA analysis of serum histamine in atopic dermatitis animal model; format: in vivo, NC/Nga mouse; settings: day of autopsy (Day 14)
Method: as §1, §2, §3, §4
On the day of the autopsy, blood samples were collected from the abdominal vein using a syringe. The serum isolated from the blood was analyzed for IgE and histamine using an ELISA kit.

## VKCFNCGKEGHTARNCRAPRKKGCWKCGKEGHQMKDCTERLYE (ACP-tetrapeptide) [ACP cell penetrating peptide linked at the N-terminal of the tetrapeptide]
IgE; FIG. 7
  IgE level compared with prednisolone treated group: lower than that of the prednisolone treated group
IgE; p<0.001 or p<0.01, FIG. 7
  IgE level compared with group 2 (induced control): significantly lower
  IgE level compared with normal control group: significantly higher
HeLa cells
  cell membrane permeability (transfer into cells): transferred into the cells through ACP in a concentration-dependent manner without aggregation in the cell membrane
[1]; FIG. 10
  angiogenesis (Isolectin B4 staining): lower than that of the inducted control group
[1]; FIG. 11
  inflammatory cell inflow (F4/80 staining): lower than that of the inducted control group
[1]; FIG. 12
  keratinization and fibrosis (cytokeratin staining): lower than that of the inducted control group
[2]; 7th and 14th day after administration, tetrapeptide 0.622, ACP-tetrapeptide 4.987, prednisolone 50 μg/ear once a day, p<0.001 or p<0.01
  ear thickness compared with induced control group (group 2): significantly thinner
[2]; 14th day after administration, p<0.001
  ear thickness compared with normal control group (group 1): significantly thicker
[3]; hypertrophy, hyperkeratosis
  epidermis score level compared with group 2: significantly lower
[3]
  dermis score level compared with group 2: significantly lower
histamine; FIG. 7
  histamine level compared with prednisolone treated group: lower than that of the prednisolone treated group
histamine; p<0.001 or p<0.01, FIG. 7
  histamine level compared with group 2 (induced control): significantly lower
